Data set [1] can be described thus: rat predicted hepatic clearance (hepatic microsomes). It counts as in vitro ADME. How it is done: (§1) Intrinsic clearance: Human or rat hepatic microsomes (0.5 mg/mL) and 1 µM test compound were incubated in 100 mM potassium phosphate pH 7.4 buffer with 3 mM MgCl2 at 37 °C with constant shaking. After a 5 min preincubation, the reaction was initiated by the addition of NADPH (1 mM). At selected time intervals (0, 3, 7, 15, 25, and 45 min), aliquots were taken and subsequently placed into a 96-well plate containing cold acetonitrile with internal standard (50 ng/mL carbamazepine). Plates were then centrifuged at 3000 rcf (4 °C) for 10 min, and the supernatant was transferred to a separate 96-well plate and diluted 1:1 with water for LC/MS/MS analysis. The in vitro half-life ( 1/2, min, Eq. 1), intrinsic clearance (CLint, mL/min/kg, Eq. 2), and subsequent predicted hepatic clearance (CLhep, mL/min/kg, Eq. 3) was determined employing the […]
(§2) where k represents the slope from linear regression analysis of the natural log percent remaining of a test compound as a function of incubation time […]
(§3) (2) CLint = in vitroT1/2 x mg microsomes x gram liver x kg body wt ascale-up factors: of 20 (human) or 45 (rat) […]
(§4) where Qh (hepatic blood flow, mL/min/kg) is 21 (human) or 70 (rat).
(§5) LC/MS/MS Bioanalysis of Samples from Plasma Protein Binding and Intrinsic Clearance […]
(§6) Samples were analyzed on a Thermo Electron TSQ Quantum Ultra triple quad mass spectrometer (San Jose, CA) via electrospray ionization (ESI) with two Themo Electron Accella pumps (San Jose, CA), and a Leap Technologies CTC PAL autosampler (Carrboro, NC). Analytes were separated by gradient elution on a dual column system with two Thermo Hypersil Gold (2.1 x 30 mm, 1.9 µm) columns (San Jose, CA) thermostated at 40 °C. HPLC mobile phase A was 0.1% formic acid in water and mobile phase B was 0.1% formic acid in acetonitrile. The gradient started […]
for 0.2 min; returned to 10% B in 0.1 min. The total run time was 1.3 min and the HPLC flow rate was 0.8 mL/min. While pump 1 ran the gradient method, pump 2 equilibrated the alternate column isocratically at 10% B. Compound optimization, data collection, and processing was performed using Thermo Electron's QuickQuan software (v2.3) and Xcalibur (v2.0.7 SP1).

Data set [2] is described as follows: rat plasma protein binding (equilibrium dialysis). The class given is in vitro ADME. To be noted: pH 7.4, read-out: rat plasma fu. The procedure: In vitro Plasma protein binding and Brain homogenate binding: Determination of fraction unbound (f u) in plasma was conducted in vitro via equilibrium dialysis using HTDialysis (HTD) membrane plates. The top half of the plate was filled with 100 uL of Dubelco’s Phosphate Buffered Saline, pH 7.4 (DPBS). Compounds were diluted into plasma from each species (5 µM final concentration), which was aliquoted in triplicate to the ‘bottom half’ of the prepared HTD plate wells. The HTD plate was sealed and incubated for 6 hours at 37 °C. Following incubation, each well (both top and bottom halves) were transferred (20 µL) to the corresponding wells of a 96-shallow-well (V-bottom) plate. The daughter plates were then matrix-matched (DPBS side wells received equal volume of plasma, and plasma side wells received equal volume of DPBS), and extraction solution (120 µL; acetonitrile containing 50 nM carbamazepine as IS) was added to all wells of both daughter plates to precipitate protein and extract test article. The plates were then sealed and centrifuged (3500 rcf) for 10 minutes at ambient temperature. Supernatant (60 µL) from each well of the daughter plates was then transferred to the corresponding wells of new daughter plates (96-shallow-well, V bottom) containing water (Milli-Q, 60 µL/well), and the plates were sealed in preparation for LC-MS/MS analysis (see LC-MS/MS analysis method below).
The unbound fraction (f u) was calculated following the equation below, and mean values for each species were calculated from 3 replicates. […]
Fraction unbound for both plasma and brain samples was determined using Equation 4.
Equation 4 Determination of fraction unbound in plasma. […]
In general terms: In equilibrium dialysis only unbound substance equilibrates across the membrane.

Another data set addresses T1, TREK-2 (Homo sapiens, UniProt P57789).
T1 sequence (P57789 1-538): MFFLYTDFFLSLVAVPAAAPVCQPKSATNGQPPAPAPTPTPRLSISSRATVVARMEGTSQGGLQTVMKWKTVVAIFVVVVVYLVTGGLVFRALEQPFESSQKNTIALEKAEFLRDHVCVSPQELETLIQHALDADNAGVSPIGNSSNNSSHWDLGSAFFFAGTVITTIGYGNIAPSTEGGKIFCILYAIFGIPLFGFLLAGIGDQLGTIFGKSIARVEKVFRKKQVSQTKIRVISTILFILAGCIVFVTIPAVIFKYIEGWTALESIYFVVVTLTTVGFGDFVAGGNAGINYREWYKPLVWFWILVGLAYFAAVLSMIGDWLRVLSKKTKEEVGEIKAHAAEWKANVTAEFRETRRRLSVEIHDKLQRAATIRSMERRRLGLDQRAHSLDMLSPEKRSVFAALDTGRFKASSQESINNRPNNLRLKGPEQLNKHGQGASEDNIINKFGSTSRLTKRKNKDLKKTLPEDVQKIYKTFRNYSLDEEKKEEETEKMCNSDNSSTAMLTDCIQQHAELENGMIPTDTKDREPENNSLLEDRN
In words: TREK-2 thallium flux assay (hTREK-2/HEK). Also noted: expressed in transfected cells; host or cells: HEK293. The class given is cell-based. To be noted: for Emax: % activation relative to 10 µM BL-1249; for Fold TREK-2: TREK-2 preference over TREK-1, thallium flux. The procedure: Procedures for Biological Experiments
TREK-1 and TREK-2 thallium flux assay protocol […]
HEK293 cells stably expressing human TREK-2 (hTREK-2/HEK) were constructed at Ono. hTREK-1/CHO or hTREK-2/HEK were plated in 384-well plates at a density of 1.0x10^4 cells/well or 2.0x10^4 cells/well, respectively, and cultured overnight. After the wash by HBSS + 20 mM HEPES buffer, cells were loaded with Thallos dye for 1 hour at room temperature. After the wash […]
dissolved with HBSS + 20mM HEPES buffer were added to each well. After 10 minutes incubation at room temperature, thallium stimulus buffer were added to each well and the fluorescent intensity are measured by Panoptic. The final thallium concentration was 0.36 mM in […]
TREK-1 or 0.24 mM in TREK-2, respectively. […]

Data set [3] is described as follows: mouse predicted hepatic clearance. The class given is in vitro ADME. The procedure:
as §1, §2, §3, §4, §5, §6
for 0.2 min; returned to 10% B in 0.1 min. The total run time was 1.3 min and the HPLC flow rate was 0.8 mL/min. […]

The structures appear in SMILES notation.

As a reminder, the EC50 is the concentration at which the effect is half-maximal. A high value points to weaker potency. What is called Emax is the maximal effect, on the per cent scale that the assay sets. For `CS(=O)(=O)Nc1ccc(C(=O)NCc2ccc(Cl)cc2Cl)cc1` [Compound 13], the “rat CLhep (predicted hepatic clearance)” value in data set [1] was 17.4 mL/min/kg. The fraction unbound at 6 h, 5 µM in data set [2] was 0.027. In addition, at TREK-2, a half-maximal response (EC50) required 3200 nM, the Emax was found to be 155% and the “Fold TREK-2” value was ~3 fold.

Turning to `O=C(NCc1ccc(Br)cc1Cl)c1ccc(-c2ncn[nH]2)cc1` [Compound 14a], the “mouse CLhep (predicted hepatic clearance)” value in data set [3] is on record as 33.0 mL/min/kg. On TREK-2, the midpoint of the response, the EC50, lay at 730 nM and the Emax was found to be 183%.

On to `Cc1cc(OC(F)(F)F)ccc1CNC(=O)c1ccc2ncnn2c1` [Compound 19a], for which, in data set [1], the “rat CLhep (predicted hepatic clearance)” value was 5.7 mL/min/kg. Moreover, the “mouse CLhep (predicted hepatic clearance)” value in data set [3] is given as 30.5 mL/min/kg. In addition, the fraction unbound at 6 h, 5 µM in data set [2] came to 0.075. On TREK-2, the EC50 was found to be 150 nM, the Emax was 160% and the “Fold TREK-2” value was found to be 25.3 fold.

Regarding `O=C(NCc1ccc(OC(F)(F)F)cc1F)c1ccc2ncnn2c1` [Compound 19b], the “rat CLhep (predicted hepatic clearance)” value in data set [1] is reported as 2.9 mL/min/kg. The “mouse CLhep (predicted hepatic clearance)” value in data set [3] is 17.8 mL/min/kg. Moreover, the fraction unbound at 6 h, 5 µM in data set [2] amounted to 0.075. Also, on TREK-2, the EC50 amounted to 300 nM, the Emax turned out to be 184% and the “Fold TREK-2” value is given as 9.3 fold.

These data come from PMC11887051, “Discovery of ONO-2920632 (VU6011887): A Highly Selective and CNS Penetrant TREK-2 (TWIK-Related K+ Channel 2) Preferring Activator In Vivo Tool Compound” (ACS Chemical Neuroscience, 2025).
